The values below are quoted from earlier work in US20200108015A1, “Sustained Release Nitric Oxide in Intestinal Tract” (SKLAR PHARMA LLC, priority 2018, published 2020).

The structures appear in SMILES notation. Where two headings read alike, the source gives them in different places.

With `NC(=O)NO` [Hydroxyurea, hydroxyurea], for the setting “in vivo”, the half life entry is recorded as “two”.
Consider `CC(=O)Oc1ccccc1C(=O)O` [aspirin], for which, where the note is “in the blood stream”, the half life entry is recorded as “about 30 minutes”.
